Key:
PAR2 [1] = test: Whole population FRET with cytosolic ERK sensor CytoEKAR in HEK293 cells; format: cell-based
Description: (§1) Förster Resonance Energy Transfer (FRET) was used to characterise PAR2 mediated ERK within different subcellular compartments upon stimulation with different agonists. The assays were repeated after employing pharmacological and genetic approaches shown to abolish receptor internalisation to assess the role of internalisation in generating compartmentalised signals.
(§2) After achieving ˜50% confluency within 10 cm dishes HEK293 cells were transfected with 2-5 μg of PAR2 with N-terminal HA epitope tag (PAR2-HA) and 2-5 μg of desired FRET biosensor, using PEI as a transfection agent. 24 hours after transfection, cells were seeded into poly-D-lysine coated black 96 well isoplates. FRET was assessed 48 hours after cell plating, following overnight serum restriction. […] When used endocytic inhibitors were diluted in 1×HBSS+1% dimethyl sulfoxide (DMSO). Following the replacement of culture media cells were allowed to equilibrate at 37° C. for 30 minutes. FRET was then determined using a PHERAstar FS microplate reader (BMG LabTech, Offenburg, Germany), cells were sequentially excited at 430 nm with emissions being read at 550 nm and 490 nm. A 4 minute baseline was obtained before the addition of vehicle (1×HBSS+/−1% DMSO), protease or 1 μM PDBu (serving as a positive control). Measurements were then continued every minute for a further 30 minutes. FRET ratios were then calculated and corrected to baseline and vehicle treatments in Microsoft Excel 2013.

PAR2 [2] = test: BRET receptor trafficking, PAR2-RLuc8 with plasma membrane marker RIT-venus in HEK293 cells; format: cell-based
Description: (§3) Bret studies of receptor trafficking were conducted to quantify PAR2 internalisation (RIT-venus) and trafficking to early endosomes (Rab5a-venus) upon stimulation with different agonists.
(§4) After achieving ˜50% confluency within 10 cm dishes HEK293 cells were transiently transfected with 1 μg PAR2-RLuc8 and 4 μg of either RIT-venus or Rab5a-venus using PEI as a transfection agent. 24 hours post transfection, cells were seeded into poly-D-lysine coated 96-well isoplates. […] When used endocytic inhibitors were diluted in 1×HBSS+1% dimethyl sulfoxide (DMSO). Following the replacement of culture media cells were allowed to equilibrate at 37° C. for 30 minutes before the addition of colenterazine H [5 μM]. After a further 5 minute incubation BRET was assessed using a LUMIstar Omega microplate reader (BMG LabTech, Offenburg, Germany), with luminescence being read at 535 nm and 475 nm. A 4 minute baseline was obtained before the addition of vehicle (1×HBSS+/−1% DMSO) or protease, measurements were then continued for a further 30 minutes. BRET ratios were calculated using LUMIstar MARS analysis software and then corrected to baseline and vehicle treatments in Microsoft Excel 2013.

PAR2 [3] = test: Whole population FRET with nuclear ERK sensor NucEKAR in HEK293 cells; format: cell-based
Description: as §1
as §2, with “Measurements were then continued every minute for a further 30 minutes.” left out

PAR2 [4] = test: FRET biosensors for compartmentalised cAMP, PKC and ERK signals in HEK cells and rat dorsal root ganglia neurons; format: cell-based
Description: (§5) The contribution of endocytosis of protease-activated receptor-2 (PAR2) was evaluated for generation of signals in subcellular compartments that mediate protease-evoked sensitization of nociceptors. Bioluminescence resonance energy transfer (BRET) was used to assess the proximity of PAR2 to resident proteins of the plasma membrane (KRas) and endosomes (Rab5a) in HEK cells. […] Förster resonance energy transfer (FRET) biosensors targeted to the plasma membrane, cytosol or nucleus were used to examine the capacity of proteases to generate signals in subcellular compartments of HEK cells and rat dorsal root ganglia neurons. […] Dynamin inhibitor Dyngo4a, Clathrin inhibitor Pitstop2 and dominant negative β-arrestin inhibited trypsin-evoked endocytosis of PAR2, and prevented trypsin-evoked activation of cytosolic cAMP and PKC and nuclear ERK. […] To examine the link between PAR2 endocytosis, compartmentalized signaling and nociceptor sensitization, perforated patch clamp recordings were made from mouse dorsal root ganglia neurons. […] The effects of proteases on excitability were blocked by the PAR2 antagonist GB88. Thus, canonical and biased proteases sensitize nociceptors by distinct mechanisms. For canonical agonists, PAR2 endocytosis generates compartmentalized signals subcellular compartments that underlie sustained excitability of nociceptive neurons. Inhibiting endosomal signaling of PAR2 may provide a novel method of treating protease-evoked pain.

PAR2 [5] = test: BRET proximity of PAR2 to KRas (plasma membrane) and Rab5a (endosomes) in HEK cells; format: cell-based; conditions: HEK cells
Description: as §5

DRG neurons = test: Perforated patch-clamp excitability (rheobase) of isolated DRG neurons; format: cell-based, mice; conditions: 0 min and 30 min after washing
Description: To assess the effects of proteases on excitability of nociceptors, DRG neurons were preincubated with trypsin, cathepsin S, elastase or vehicle (control), washed, and rheobase and action potential discharge at a current of twice rheobase were measured at 0 min or 30 min after washing.
DRG (T9-T13) from C57BL/6 mice were digested by incubation in collagenase (1 mg/ml, Worthington Biochemical, Lakewood, N.J.) and dispase (4 mg/ml, Roche Life Science, Indianapolis, Ind.) for 10 min at 37° C., and were dispersed by trituration with a fire-polished Pasteur pipette. Cells were plated onto coverslips coated with laminin (0.017 mg/ml) and poly-D-lysine (2 mg/ml) in 24-well plates. Neurons were cultured in F12 medium (Cat N668, Lot RNBD5333, Sigma-Aldrich, St Louis, Mo. USA) containing 10% fetal calf serum, with penicillin and streptomycin and maintained at 37° C. in a humidified atmosphere of 95% air and 5% CO2 until retrieval (16 h) for electrophysiological studies.
Neuronal excitability was assessed by perforated patch-clamp recordings with amphotericin B (240 μg/ml) from small diameter neurons (<30 pF capacitance) in current clamp mode at room temperature. Only neurons with resting membrane potentials more negative than −40 mV were analyzed. Changes in excitability were quantified by measuring rheobase (minimum current to fire action potential) and numbers of action potentials discharged at twice rheobase. Recordings were made using Axopatch 200B amplifiers, digitized by Digidata 1322A and stored and processed using pClamp 10.1 software (Molecular Devices, Sunnyvale, Calif.). The recording chamber was continuously perfused with external solution at 2 ml/min. External solution was (mM): 140 NaCl, 5 KCl, 10 HEPES, 10 D-glucose, 1 MgCl2, 2 CaCl2; pH to 7.4 with 3 M NaOH. Pipette solution was (mM): 110 K-gluconate, 30 KCl, 10 HEPES, 1 MgCl2, 2 CaCl2; pH 7.25 with 1 M KOH.
DRG neurons were pre-incubated with vehicle (control) or proteases using conditions that we have reported to cause robust hyperexcitability: trypsin (50 nM, 10 min), elastase (10 U/ml, 390 nM, 30 min), Cat-S (500 nM, 60 min). Neurons were then washed and maintained in protease-free F12 medium. Neuronal excitability was assessed 0 or 30 min after washing. In some experiments, neurons were incubated with vehicle (0.3% DMSO), Dyngo4a (30 μM) or PitStop2 (15 μM) for 30 min before and during incubation with proteases.
Results are expressed as mean±SE. Two way ANOVA and post hoc Tukey's tests were used to analyze the data.

PAR2 [6] = test: BRET receptor trafficking, PAR2-RLuc8 with early endosomal marker Rab5a-venus in HEK293 cells; format: cell-based
Description: as §3, §4

[7] = Protease-evoked paw edema, hindpaw thickness; format: in vivo, mice; conditions: ipsilateral paw
Description: (§6) Immediately before experiments the mice were acclimatized to the experimental apparatus, room and investigator for 1-2 h on 2 successive days. Mechanical nociceptive responses were evaluated by paw withdrawal to stimulation of the plantar surface of the hind-paw with calibrated von Frey filaments. von Frey scores were measured in triplicate to establish a baseline for each animal on the day before experiments. Paw edema was estimated by measuring the thickness of the hindpaw using digital calipers before and after treatments. Mice were […] with 5% isoflurane for intraplantar injections. Dyngo4a (50 μM), PitStop2 (50 μM) or vehicle (0.2% DMSO in 0.9% NaCl) (all 10 μl) were injected into the left hindpaw. After 30 min, trypsin (10 nM), Cat-S (2.5 μM) or elastase (30 U) (all 10 μl) were injected into the same left hindpaw. von Frey scores (left and right paws) and paw thickness (left paw) were measured hourly for up to 4 h after protease injection. Investigators were blinded to the test agents.

[8] = Protease-evoked mechanical hyperalgesia, von Frey paw withdrawal; format: in vivo, mice; conditions: ipsilateral paw
Description: as §6

With trypsin the “Ability of agonist to produce ERK signals within the cytoplasm” value (PAR2 [1]) was “able to produce ERK signals”, the EC50 (PAR2 [2]; RIT-venus, CRC from AUC data, read-out: EC50 of trypsin induced internalisation of PAR2, plasma membrane marker) was roughly 2.8 nM and the “Change in BRET between PAR2 and plasma membrane marker upon agonist stimulation” value (PAR2 [2]; trypsin 10 nM) was “time dependent decrease in BRET”. The “Ability of agonist to produce ERK signals within the nucleus” value (PAR2 [3]) was “able to produce ERK signals”, the “Signals generated by protease in subcellular compartments” value (PAR2 [4]) was “activated cAMP and protein kinase C (PKC) at the plasma membrane and in the cytosol, and extracellular signal regulate kinase (ERK) in the nucleus and cytosol” and the “PAR2 endocytosis induced by agonist” value (PAR2 [5]) was “increases BRET between PAR2 and Rab5a and decreases BRET between PAR2 and KRas”. The “Effect of protease on excitability (rheobase) of DRG neurons” value (DRG neurons) was “immediate increase in excitability”, the EC50 (PAR2 [6]; Rab5a-venus, CRC from AUC data, read-out: EC50 of trypsin induced internalisation of PAR2, early endosomal marker) was roughly 2.8 nM and the “Change in BRET between PAR2 and early endosomal marker upon agonist stimulation” value (PAR2 [6]; trypsin 10 nM) was “increase in BRET”. For the same substance, the “Edema after intraplantar injection of protease” value [7] was “edema of the ipsilateral paw that was maximal after 4 h” and the “Mechanical hyperalgesia after intraplantar injection of protease” value [8] was “caused mechanical hyperalgesia of the ipsilateral paw that was sustained for at least 4 h”.

Source: US20190298743A1, “TREATMENT OF PAIN” (Takeda Pharmaceutical Company Limited, priority 2016, published 2019)
